Here are results for four compounds from patent US20050096347A1, “Beta3-Adrenoreceptor agonists, agonist compositions and methods of using” (Molecular Design International, Inc., priority 1997, published 2005).

Counter-ions that a name gives are not always drawn.

The target of series [1] is T1, Human β1-AR (Homo sapiens, UniProt P08588). The series is described as follows: CRE-luciferase reporter gene (CRE-LUC) assay, CHO cells expressing human β1-AR. Background: Reporter assays use an easily measured gene product as a stand-in for the process of interest.
Description: (§2) cAMP response element (CRE)-luciferase(LUC) reporter gene (CRE-LUC) assay. […] The transfected CHO cells were seeded at a density of 40,000/well in 96 well microtiter plates (Culturplate, Packard) and allowed to grow for 20 hours. After 20 hours, the cells were treated with varying drug concentrations (10^−11 to 10^−4 M) for 4 hours. Following drug exposures, the cells were lysed and luciferase activity measured using the LucLite® assay kit (Packard). Changes in light production were measured by a Topcount® luminometer (Packard).
The target in a further series is Human β2-AR (Homo sapiens, UniProt P07550). Kind of series: CRE-luciferase reporter gene (CRE-LUC) assay, CHO cells expressing human β2-AR.
In series [2] the target is T2, Human β3-AR (Homo sapiens, UniProt P13945). Kind of series: CRE-luciferase reporter gene (CRE-LUC) assay, CHO cells expressing human β3-AR.
Description: as §2
For a further series, the target named is T3, human β2 Adrenoreceptor (Homo sapiens, UniProt P07550).
T3 construct: expressed in transfected cells
Kind of series: Radioligand competition binding, human β2 adrenoreceptor expressed in CHO cells ([125I]ICYP). The following applies: CHO cells; [125I]ICYP; N = 3-9 (Table 5). (In general: In a radioligand displacement assay an active substance lowers the binding of a labelled ligand.)

The next series deals with T4, human β3-Adrenoreceptor (Homo sapiens, UniProt P13945).
T4 construct: expressed in transfected cells
The series is described as follows: Radioligand competition binding, human β3 adrenoreceptor expressed in CHO cells ([125I]ICYP). The following applies: N = 3-9 (Table 5).

For series [3], the target named is T2, Human β3-AR. Kind of series: cAMP radioimmunoassay (cAMP-RIA), CHO cells expressing human β3-AR. The format is cell-based. The arrangement: expressed in transfected cells. The following applies: for EC50: CHO cells, N.A. = Not active at 100 μM, N = 4-12, read-out: pKact ± SEM, Human β3-AR, cAMP-RIA assay (converted); for I.A., Human β3-AR, cAMP-RIA assay: percentage of maximal response of R-(−)-isoproterenol (100%). As to the method:
(§1) cAMP Radioimmunoassay (CAMP-RIA Assay). […] The precipitated protein was dissolved in 0.1N NaOH.

Series [4] deals with T1, Human β1-AR. Kind of series: cAMP radioimmunoassay (cAMP-RIA), CHO cells expressing human β1-AR. The format is cell-based. More on the design: expressed in transfected cells. Conditions: percentage of maximal response of R-(−)-isoproterenol (100%). As for the experimental part:
as §1

A further series concerns the target human β1 Adrenoreceptor (Homo sapiens, UniProt P08588). Kind of series: Radioligand competition binding, human β1 adrenoreceptor expressed in CHO cells ([125I]ICYP). The following applies: CHO cells; [125I]ICYP; N = 3-9 (Table 5).
[5] abbreviates: percentage of maximal response of R-(−)-isoproterenol (Table 6 B).

T2 sequence (P13945 whole entry): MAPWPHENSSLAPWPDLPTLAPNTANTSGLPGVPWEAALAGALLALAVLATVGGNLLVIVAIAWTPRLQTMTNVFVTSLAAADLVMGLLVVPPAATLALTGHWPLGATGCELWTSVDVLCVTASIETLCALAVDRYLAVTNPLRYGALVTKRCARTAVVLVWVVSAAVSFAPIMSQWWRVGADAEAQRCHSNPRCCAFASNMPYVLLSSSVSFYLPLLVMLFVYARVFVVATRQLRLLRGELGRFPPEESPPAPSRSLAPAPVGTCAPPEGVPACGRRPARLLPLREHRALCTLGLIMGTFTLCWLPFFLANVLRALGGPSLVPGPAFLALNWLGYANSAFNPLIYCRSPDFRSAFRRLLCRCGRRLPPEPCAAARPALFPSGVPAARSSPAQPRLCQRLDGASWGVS
T3 sequence (P07550 whole entry): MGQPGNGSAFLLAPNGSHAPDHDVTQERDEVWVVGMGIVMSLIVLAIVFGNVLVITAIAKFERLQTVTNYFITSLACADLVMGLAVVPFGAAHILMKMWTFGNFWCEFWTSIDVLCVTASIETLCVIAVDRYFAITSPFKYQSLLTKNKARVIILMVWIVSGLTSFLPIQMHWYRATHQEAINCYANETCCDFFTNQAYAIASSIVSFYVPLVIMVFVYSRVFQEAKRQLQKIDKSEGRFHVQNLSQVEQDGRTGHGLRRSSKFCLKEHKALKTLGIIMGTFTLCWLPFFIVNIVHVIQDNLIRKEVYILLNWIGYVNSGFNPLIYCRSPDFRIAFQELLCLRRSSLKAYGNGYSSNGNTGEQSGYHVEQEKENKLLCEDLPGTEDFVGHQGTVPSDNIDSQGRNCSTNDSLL
Sequence of Human β2-AR (P07550 whole entry): as above
T4 sequence (P13945 whole entry): as the sequence (P13945 whole entry) above
T1 sequence (P08588 whole entry): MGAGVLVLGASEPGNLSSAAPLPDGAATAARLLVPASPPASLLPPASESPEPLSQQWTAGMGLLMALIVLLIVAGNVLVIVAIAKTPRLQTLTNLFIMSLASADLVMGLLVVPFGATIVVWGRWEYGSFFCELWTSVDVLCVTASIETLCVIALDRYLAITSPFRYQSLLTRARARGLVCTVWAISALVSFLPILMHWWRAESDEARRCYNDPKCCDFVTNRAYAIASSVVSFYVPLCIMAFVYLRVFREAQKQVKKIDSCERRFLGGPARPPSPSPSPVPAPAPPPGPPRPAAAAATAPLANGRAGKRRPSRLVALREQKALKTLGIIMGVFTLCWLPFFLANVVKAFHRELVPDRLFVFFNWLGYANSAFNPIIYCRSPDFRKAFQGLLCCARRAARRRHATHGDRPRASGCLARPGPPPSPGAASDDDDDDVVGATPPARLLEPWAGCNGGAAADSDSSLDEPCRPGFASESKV
Sequence of human β1 Adrenoreceptor (P08588 whole entry): as above
Description for Human β2-AR: as §2
Description for human β1 Adrenoreceptor: Competitive and comparative binding experiments on β1 Adrenoreceptors, β2 Adrenoreceptors and β3-Adrenoreceptors expressed in CHO cells were performed as described previously. […] CHO cells grown to a confluence in 150-mL flasks were detached into Ham's F-12 medium after treatment with 0.05% trypsin-0.53 mM EDTA solution. The cells were then pelleted and washed three times with Tris-EDTA buffer (50 mM Tris-HCl, 150 mM NaCl, 20 mM EDTA, pH 7.4) and resuspended in the same buffer.
Competition binding experiments were performed in duplicates using these whole cells. […] The final volume in each tube was 0.25 mL. Nonspecific binding (5-30%) was determined in the presence of 1 μM (±)-propranolol. Incubations were carried out for 60 min at 37° C. Binding reactions were terminated by rapid filtration through Whatman GF/B glass fiber filters on a Brandel model 12-R tissue harvester. Filters were washed twice with ice cold Tris-EDTA buffer to remove free ICYP. The filters were dried under tissue harvester vacuum and radioactivity was measured by gamma scintillation spectrometry (Beckman model 8000 gamma counter, Palo Alto, Calif.). Specific binding to β Adrenoreceptor sites in these cells varied from 94 to 100%
Inhibitory concentration-50 (IC50) value of each competing drug was determined graphically from individual plots of percent radioligand bound versus log drug concentration on O-adrenoceptors and human platelets. […] Dissociation constants (Ki) for each competing drug were calculated using the equation: [formula] and the data expressed as pKi (i.e., −log Ki) values.

For orientation: melting point means the temperature of the solid-liquid transition. For the compound `COc1cc2c(cc1OC)C(Cc1cc(I)c(NC(C)=O)c(I)c1)NCC2` (centres unmarked) (as salt: hydrochloride) [6,7-Dimethoxy-acetamidoDITMQ, 1-(4-Acetamido-3,5-diiodobenzyl)-6,7-dimethoxy-1,2,3,4-tetrahydroisoquinoline Hydrochloride], the melting point is 196 to 200 °C (dec.).

Take `COc1c(I)cc(CC2NCCc3cc(O)ccc32)cc1I` (centres unmarked) [6-Monophenolic TMQ analog (A-4)]: the figures for the EC50 at Human β1-AR [1], on Human β2-AR and on Human β3-AR [2] were 1950 nM, 229 nM and 35.5 nM, respectively.

Consider `COc1c(I)cc(CC2NCCc3nc(N)sc32)cc1I.Cl.Cl` (centres unmarked) [9 (B-28), 2-Amino-4-(3′,5′-diiodo-4′-methoxyphenylmethyl)-4,5,6,7-tetrahydrothiazolo[5,4-c]pyridine Dihydrochloride], for which the “pKi ± SEM, Human β2-AR” value at human β2 Adrenoreceptor stood at 6.37 ± 0.08. In addition, the “pKi ± SEM, Human β3-AR” value at human β3-Adrenoreceptor was 5.83 ± 0.15. The results for the EC50 on Human β3-AR [3] and on Human β3-AR [2] were 112 nM and 195 nM, respectively. For the same compound, the “I.A., Human β3-AR, cAMP-RIA assay” value at Human β3-AR [3] is on record as 67 ± 3%. The “I.A. ± SEM, Human β2-AR, CRE-LUC assay” value on Human β2-AR (setting [5]) is less than 15%. In addition, the “I.A., Human β3-AR, CRE-LUC assay” value on Human β3-AR [2] (setting [5]) was found to be 62 ± 3%.

Regarding `COc1cc(CC2NCCc3nc(N)sc32)cc(OC)c1OC.Cl.Cl` (centres unmarked) [7 (B-29), 2-Amino-4-(3′,4′,5′-trimethoxyphenylmethyl)-4,5,6,7-tetrahydro-thiazolo[5,4-c]pyridine Dihydrochloride], on human β2 Adrenoreceptor, the “pKi ± SEM, Human β2-AR” value is given as 6.21 ± 0.12. In addition, at human β3-Adrenoreceptor, the “pKi ± SEM, Human β3-AR” value is 4.17 ± 0.05. In addition, the “I.A. ± SEM, Human β1-AR, cAMP-RIA assay” value on Human β1-AR [4] is on record as less than 10%. In addition, on Human β3-AR [3], the EC50 is 8710 nM and the “I.A., Human β3-AR, cAMP-RIA assay” value is given as 54 ± 1%. Further, on human β1 Adrenoreceptor, the “pKi ± SEM, Human β1-AR” value was found to be 5.21 ± 0.08.
